Data as given in patent publication US20260209152A1, “Substituted Hydroxystilbene Compounds and Derivatives, Synthesis and Uses Thereof” (Kynan Duke IP, LLC, priority 2019, published 2026).
Like-named read-outs stand apart in the source and are kept apart here. Each block holds one molecule with its values, some of them ahead of it.

Key:
Type in all cases: cell-based, human
Bladder UMUC_3 = test: CellTiter Glo cell viability assay; details: for IC50: Homo sapiens
Protocol: (§1) 1.7*10^3 cells/well were seeded in quadruplicates in 96-well plate after plating. Drugs were added at 5 μM and 2-fold dilutions over 18 concentrations (0.000038146-5 […] range) to generate a dose-response curve. Cell growth was assessed on day 1, 3 and 5 after drug treatments using the CellTiter Glo Luminescence Cell Viability Assay (Promega) according to manufacturer's protocol. Thermo Scientific Varioskan LUX Multimode Microplate instrument was used for plate reading. Data are expressed as mean luminescence (arbitrary units) ±S.D.
(§2) Cell Viability Assays were employed to determine the concentration of Compound 1 (KYN-001) and analogues where the response is reduced by half. For each treatment of cancer cells, 1, 2, 5, 10 and 20 μM solutions of compounds were applied. GraphPad Prism 7 software was used to fit dose response curves. Relative Luminescence Units were plotted against the log values of the doses used and the nonlinear regression model was used for data analysis.
(§3) The protocol for cell proliferation was optimized for Compound 8 (KYN-119) to enable a more accurate assessment of its low IC50 value. In this protocol, 18 dosages (2 fold dilutions ranging from 0.000038146 to 5 μM) were applied to cells seeded in 96-well plates, and Luminescence was measured after 1, 3 and 5 days upon treatments.

Tongue CAL 27 = test: CellTiter Glo cell viability assay; details: for IC50: Homo sapiens
Protocol: as §1, §2, §3

Lung NCI-H1573 = test: CellTiter Glo cell viability assay; details: for IC50: Homo sapiens
Protocol: as §1, §2, §3

Rhabomyosarcoma TE 159.T = test: CellTiter Glo cell viability assay; details: for IC50: Homo sapiens, 72 h, 3 Days of treatment, 18 2-fold dilutions 5-0.00003 μM, read-out: Average IC50
Protocol: as §1, §2, §3

Pharynx DETROIT = test: CellTiter Glo cell viability assay; details: for IC50: Homo sapiens
Protocol: as §1, §2, §3

Kidney Caki-2 = test: CellTiter Glo cell viability assay; details: for IC50: Homo sapiens
Protocol: as §1, §2, §3

Lung NCI-H1563 = test: CellTiter Glo cell viability assay; details: for IC50: Homo sapiens
Protocol: as §1, §2, §3

Osteosarcomas SAOS-2 = test: CellTiter Glo cell viability assay; details: for IC50: Homo sapiens
Protocol: as §1, §2, §3

Bladder T24 = test: CellTiter Glo cell viability assay; details: for IC50: Homo sapiens
Protocol: as §1, §2, §3

Tongue UPCI: SCC090 = test: CellTiter Glo cell viability assay; details: for IC50: Homo sapiens
Protocol: as §1, §2, §3

Pancreatic PANC-1 = test: CellTiter Glo cell viability assay; details: for IC50: Homo sapiens
Protocol: as §1, §2, §3

Lung NCI-H2126 = test: CellTiter Glo cell viability assay; details: for IC50: Homo sapiens
Protocol: as §1, §2, §3

Liver HepG2 = test: CellTiter Glo cell viability assay; details: for IC50: Homo sapiens
Protocol: as §1, §2, §3

Kidney Caki-1 = test: CellTiter Glo cell viability assay; details: for IC50: Homo sapiens
Protocol: as §1, §2, §3

Tongue SCC-4 = test: CellTiter Glo cell viability assay; details: for IC50: Homo sapiens
Protocol: as §1, §2, §3

Bladder SCABER = test: CellTiter Glo cell viability assay; details: for IC50: Homo sapiens
Protocol: as §1, §2, §3

Liver SNU-398 = test: CellTiter Glo cell viability assay; details: for IC50: Homo sapiens
Protocol: as §1, §2, §3

[1] = tested on: Hypo-pharynx UPCI: SCC152; test: CellTiter Glo cell viability assay; details: for IC50: Homo sapiens
Protocol: as §1, §2, §3

[2] = tested on: Cancer cells including pancreatic, bladder, kidney, colon, breast, lung, liver and osteosarcomas; test: CellTiter Glo cell viability assay, panel of cancer cell lines
How it was run: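 Cells (1.7*10^3/well) were seeded in quadruplicate and treated with 2-fold dilutions over 18 concentrations up to 5 μM, or with 1, 2, 5, 10 and 20 μM. Viability was read by CellTiter Glo luminescence on days 1, 3 and 5; half-maximal concentrations came from nonlinear regression of RLU versus log dose.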

[3] = UMUC3, 72 h, 3 Days of treatment, 18 2-fold dilutions 5-0.00003 μM, read-out: Average IC50
[4] = UMUC3, UM-UC-3/CRL-1749, 11 dilutions 3-0.00001 μM, read-out: IC50
[5] = CAL-27, 72 h, 3 Days of treatment, 18 2-fold dilutions 5-0.00003 μM, read-out: Average IC50
[6] = CAL 27/CRL-2095, 11 dilutions 3-0.00001 μM, read-out: IC50
[7] = NCI-H1573, 72 h, 3 Days of treatment, 18 2-fold dilutions 5-0.00003 μM, read-out: Average IC50
[8] = NCI-H1573/CRL-5877, 11 dilutions 3-0.00001 μM, read-out: IC50
[9] = 72 h, 3 Days of treatment, 18 2-fold dilutions 5-0.00003 μM, read-out: Average IC50
[10] = Detroit 562/CCL-138, 11 dilutions 3-0.00001 μM, read-out: IC50
[11] = CAKI-2, 72 h, 3 Days of treatment, 18 2-fold dilutions 5-0.00003 μM, read-out: Average IC50
[12] = Caki-2/HTB-47, 11 dilutions 3-0.00001 μM, read-out: IC50
[13] = NCI-H1563, 72 h, 3 Days of treatment, 18 2-fold dilutions 5-0.00003 μM, read-out: Average IC50
[14] = NCI-H1563/CRL-5875, 11 dilutions 3-0.00001 μM, read-out: IC50
[15] = SAOS-2, 72 h, 3 Days of treatment, 18 2-fold dilutions 5-0.00003 μM, read-out: Average IC50
[16] = Saos-2/HTB-85, 11 dilutions 3-0.00001 μM, read-out: IC50
[17] = T24/HTB-4, 11 dilutions 3-0.00001 μM, read-out: IC50
[18] = UPCI: SCC090/CRL-3239, 11 dilutions 3-0.00001 μM, read-out: IC50
[19] = PANC-1, 72 h, 3 Days of treatment, 18 2-fold dilutions 5-0.00003 μM, read-out: Average IC50
[20] = PANC-1/CRL-1469, 11 dilutions 3-0.00001 μM, read-out: IC50
[21] = NCI-H2126, 72 h, 3 Days of treatment, 18 2-fold dilutions 5-0.00003 μM, read-out: Average IC50
[22] = NCI-H2126/CCL-256, 11 dilutions 3-0.00001 μM, read-out: IC50
[23] = HepG2, 72 h, 3 Days of treatment, 18 2-fold dilutions 5-0.00003 μM, read-out: Average IC50
[24] = HepG2, Hep G2/HB-8065, 11 dilutions 3-0.00001 μM, read-out: IC50
[25] = CAKI-1, 72 h, 3 Days of treatment, 18 2-fold dilutions 5-0.00003 μM, read-out: Average IC50
[26] = Caki-1/HTB-46, 11 dilutions 3-0.00001 μM, read-out: IC50
[27] = SCC-4, 72 h, 3 Days of treatment, 18 2-fold dilutions 5-0.00003 μM, read-out: Average IC50
[28] = SCC-4/CRL-1624, 11 dilutions 3-0.00001 μM, read-out: IC50
[29] = SCaBER, 72 h, 3 Days of treatment, 18 2-fold dilutions 5-0.00003 μM, read-out: Average IC50
[30] = SCaBER/HTB-3, 11 dilutions 3-0.00001 μM, read-out: IC50
[31] = SNU-398, 72 h, 3 Days of treatment, 18 2-fold dilutions 5-0.00003 μM, read-out: Average IC50
[32] = SNU-398/CRL-2233, 11 dilutions 3-0.00001 μM, read-out: IC50
[33] = UPCI: SCC152/CRL-3240, 11 dilutions 3-0.00001 μM, read-out: IC50
[34] = IC50 of 1 [KYN-001] vs 8 [KYN-119], 3 Days

IC50 (Lung NCI-H1573; [7]): 217 nM | IC50 (Lung NCI-H1573; [8]): 273 nM | IC50 (Rhabomyosarcoma TE 159.T): 147 nM | IC50 (Lung NCI-H1563; [13]): 449 nM | IC50 (Lung NCI-H1563; [14]): 184 nM | IC50 (Bladder T24; [9]): 129 nM | IC50 (Bladder T24; [17]): 182 nM | IC50 (Pancreatic PANC-1; [19]): 107 nM | IC50 (Pancreatic PANC-1; [20]): 110 nM | IC50 (Lung NCI-H2126; [21]): 75.4 nM | IC50 (Lung NCI-H2126; [22]): 106 nM | IC50 (Liver HepG2; [23]): 212 nM | IC50 (Liver HepG2; [24]): 577 nM | IC50 (Liver SNU-398; [31]): 42.9 nM | IC50 (Liver SNU-398; [32]): 208 nM | IC50 ([2]; Homo sapiens, comparative study on 83 cancer cell lines (Table 3), read-out: IC50 values in the range, towards the cell lines listed in the text): 10 to 100 nM
SMILES: COc1cc(/C=C/c2cc(O)cc(OC)c2CC=C(C)C)ccc1O [Compound 1, (E)-3-(4-hydroxy-3-methoxystyryl)-5-methoxy-4-(3-methylbut-2-en-1-yl)phenol]
IC50 (Bladder UMUC_3; [3]): 31.3 nM | IC50 (Bladder UMUC_3; [4]): 333 nM | IC50 (Tongue CAL 27; [5]): 56.8 nM | IC50 (Tongue CAL 27; [6]): 89.4 nM | IC50 (Pharynx DETROIT; [9]): 1170 nM | IC50 (Pharynx DETROIT; [10]): 131 nM | IC50 (Kidney Caki-2; [11]): 1120 nM | IC50 (Kidney Caki-2; [12]): 426 nM | IC50 (Osteosarcomas SAOS-2; [15]): 110 nM | IC50 (Osteosarcomas SAOS-2; [16]): 173 nM | IC50 (Tongue UPCI: SCC090; [9]): 90.1 nM | IC50 (Tongue UPCI: SCC090; [18]): 0.9 nM | IC50 (Kidney Caki-1; [25]): 103 nM | IC50 (Kidney Caki-1; [26]): 120 nM | IC50 (Tongue SCC-4; [27]): 100 nM | IC50 (Tongue SCC-4; [28]): 39.5 nM | IC50 (Bladder SCABER; [29]): 33.7 nM | IC50 (Bladder SCABER; [30]): 65 nM | IC50 [1, 9]: 46.3 nM | IC50 [1, 33]: 140 nM | Effect on cell viability on Day 1 ([2]; Day 1 upon treatment at dosages <1 μM): neither 1 nor 8 affect cell viability

IC50 (Lung NCI-H1573; [7]): 20.5 nM | IC50 (Lung NCI-H1573; [8]): 33.5 nM | Fold IC50 (Lung NCI-H1573; [34]): 11 | IC50 (Rhabomyosarcoma TE 159.T): 19.6 nM | Fold IC50 (Rhabomyosarcoma TE 159.T; [34]): 7.5 | IC50 (Lung NCI-H1563; [13]): 19.5 nM | IC50 (Lung NCI-H1563; [14]): 54.5 nM | Fold IC50 (Lung NCI-H1563; [34]): 23 | IC50 (Bladder T24; [9]): 22.5 nM | IC50 (Bladder T24; [17]): 61.1 nM | Fold IC50 (Bladder T24; [34]): 5.8 | IC50 (Pancreatic PANC-1; [19]): 11.5 nM | IC50 (Pancreatic PANC-1; [20]): 31.4 nM | Fold IC50 (Pancreatic PANC-1; [34]): 9.3 | IC50 (Lung NCI-H2126; [21]): 1.73 nM | IC50 (Lung NCI-H2126; [22]): 33.1 nM | Fold IC50 (Lung NCI-H2126; [34]): 44 | IC50 (Liver HepG2; [23]): 20.2 nM | IC50 (Liver HepG2; [24]): 296 nM | Fold IC50 (Liver HepG2; [34]): 11 | IC50 (Liver SNU-398; [31]): 8.15 nM | IC50 (Liver SNU-398; [32]): 74.6 nM | Fold IC50 (Liver SNU-398; [34]): 5.3
SMILES: CCOc1cc(O)cc(/C=C/c2ccc(O)c(OC)c2)c1CC=C(C)C [Compound 8, (E)-3-Ethoxy-5-(4-hydroxy-3-methoxystyryl)-4-(3-methylbut-2-en-1-yl)phenol]
IC50 (Bladder UMUC_3; [3]): 5.48 nM | IC50 (Bladder UMUC_3; [4]): 54.8 nM | Fold IC50 (Bladder UMUC_3; [34]): 5.7 | IC50 (Tongue CAL 27; [5]): 38.3 nM | IC50 (Tongue CAL 27; [6]): 30.9 nM | Fold IC50 (Tongue CAL 27; [34]): 1.5 | IC50 (Pharynx DETROIT; [9]): 438 nM | IC50 (Pharynx DETROIT; [10]): 76.6 nM | Fold IC50 (Pharynx DETROIT; [34]): 2.7 | IC50 (Kidney Caki-2; [11]): 281 nM | IC50 (Kidney Caki-2; [12]): 524 nM | Fold IC50 (Kidney Caki-2; [34]): 4.0 | IC50 (Osteosarcomas SAOS-2; [15]): 15.4 nM | IC50 (Osteosarcomas SAOS-2; [16]): 79.1 nM | Fold IC50 (Osteosarcomas SAOS-2; [34]): 7.2 | IC50 (Tongue UPCI: SCC090; [9]): 26 nM | IC50 (Tongue UPCI: SCC090; [18]): 0.5 nM | Fold IC50 (Tongue UPCI: SCC090; [34]): 3.5 | IC50 (Kidney Caki-1; [25]): 8.9 nM | IC50 (Kidney Caki-1; [26]): 27.9 nM | Fold IC50 (Kidney Caki-1; [34]): 12 | IC50 (Tongue SCC-4; [27]): 23.9 nM | IC50 (Tongue SCC-4; [28]): 23.2 nM | Fold IC50 (Tongue SCC-4; [34]): 4.2 | IC50 (Bladder SCABER; [29]): 10.1 nM | IC50 (Bladder SCABER; [30]): 27.3 nM | Fold IC50 (Bladder SCABER; [34]): 3.3 | IC50 [1, 9]: 23 nM | IC50 [1, 33]: 54.9 nM | Fold IC50 [1, 34]: 2.0 | Average fold (8 [KYN-119] more potent than 1 [KYN-001]) ([2]; 83 cancer cell lines, Table 3): 10
